From patent US7019194B2, “SCCE modified transgenic mammals and their use as models of human disease” (priority 2001, dated 2006) come the findings set out here.

This test relates to scce-transgenic mice. Kind of test: Scratching behaviour (itch) in scce-transgenic mice for testing of antipruritic agents. Type of test: in vivo. The conditions noted are these: scce-transgenic mice 20-21 weeks; tube feeding, 30 μl of 1 mg/ml mixture (FIG. 8A), 90 μl 7 days later (FIG. 8B); versus sucrose control solution. The procedure: Scratching behavior of scce-transgenic (#1010) mice. Twenty one mice, (11 transgenes, 5 females; 10 wild type litter mates, 2 females) were observed every fifth day for 45 days, starting when the mice were 5-6 weeks of age. At each observation point mice were transferred to individual cages, and episodes of scratching with hind or front paws were counted during three 5-min periods with 2.5 min lapsing from the transfer to the cage to the first counting, and between counting periods. The results for the three observation periods were pooled and the number of episodes of scratching per min calculated. […]
Transgenic mice, 18-22 weeks of age, mean weight 24.2 g, were given subcutaneous injections of either 250 μg of the glucocorticoid triamcinolone acetonide in a total volume of 100 μl on day 0, and 100 μg triamcinolone acetonide in a total volume of 100 μl on days 7, 14 and 21, or 100 μl of physiological saline at the same time points. Episodes of scratching were counted in the morning and injections were given in the afternoon. […]
Transgenic mice 20-21 weeks of age, mean weight […], were given either loratidine in a total volume of 100 μl, or 100 μl of a control solution by means of tube feeding. Episodes of scratching were counted immediately before feeding (0 hours), and then at time points as indicated. […]

Entries after “also recorded” stand apart in the source; their conditions may differ.

With `CCOC(=O)N1CCC(=C2c3ccc(Cl)cc3CCc3cccnc32)CC1` [loratidine], the “effect on itch (frequency of scratching)” value is “no significant difference in frequency of scratching; also recorded: no statistically significant antipruritic effect; also recorded: no statistically significant differences in frequency of scratching”.
